# Measured values from patent US20210253651A1, “METHOD FOR PRODUCING ORGANIC COMPOUND-ENCAPSULATING FERRITIN” (Ajinomoto Co., Inc., priority 2018, published 2021).
# Where a name gives a salt, the structure may show the parent alone. Read-outs that look alike come from different tables or passages of the source.
# Tests used:
# FTH ferritin [1] = target: T1, FTH ferritin (Homo sapiens, UniProt P02794); experiment: one-step process incorporation of small molecule agents into FTH ferritin; type: physicochemical; conditions: pH of buffer giving the largest amount of incorporation within ferritin
# T1 construct: made in house; host or cells: Escherichia coli BL21 (DE3), plasmid pET20-FTH
# T1 sequence (P02794 whole entry): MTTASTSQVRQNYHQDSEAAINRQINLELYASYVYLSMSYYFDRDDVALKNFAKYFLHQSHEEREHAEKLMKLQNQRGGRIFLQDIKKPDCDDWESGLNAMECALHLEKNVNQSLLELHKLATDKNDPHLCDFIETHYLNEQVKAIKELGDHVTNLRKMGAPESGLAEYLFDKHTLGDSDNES
# Method: All of the reactions were performed in 0.1 mL volume. […] The absorbances were measured using spectrophotometer (DU-800, Beckman Coulter Inc.) for these solutions, and the concentration of contained protein was determined using the protein assay CBB solution (Nacalai Tesque, Inc.) as well as bovine albumin as a standard. Absorbances at 280 nm and 480 nm were measured for Rhodamine B and Congo Red. […] Then, after the absorbances were calibrated based on the absorbances that were derived from the proteins and presumed by the amount of contained protein quantified using the protein assay CBB solution, the concentrations of small molecule agents were determined based on the calibration curves obtained by the absorbances of the molecules. […] As a result, the one-step process enabled incorporating also the small molecule agents with different physical properties such as molecular weight and pKa simply and easily.
# FTH ferritin [2] = target: T1, FTH ferritin; experiment: ratio of amounts incorporated, one-step vs disassembly-reassembly process; type: physicochemical
# Method: As a control, some of small molecule agents listed in Table 1 was incorporated into ferritin also at the disassembly-reassembly process. […] Then, 10 μL of 1M Tris-HCl buffer (pH 9.0) was added for neutralization, and the resulting solution was left to stand for 15 minutes at room temperature. After the standing, 0.5 mL of water was added. After the resulting solution was centrifuged (at 15,000 rpm for one minute), the supernatant was injected into the desalting column PD-10 (Sephadex G-25 filled product, GE Healthcare Inc.) equilibrated with 10 mM Tris-HCl buffer (pH 8) to separate the protein from a reagent that was not encapsulated. […]
# The absorbances were measured using spectrophotometer (DU-800, Beckman Coulter Inc.) for these solutions, and the concentration of contained protein was determined using the protein assay CBB solution (Nacalai Tesque, Inc.) as well as bovine albumin as a standard. Absorbances at 280 nm and 480 nm were measured for Rhodamine B and Congo Red. […] Then, after the absorbances were calibrated based on the absorbances that were derived from the proteins and presumed by the amount of contained protein quantified using the protein assay CBB solution, the concentrations of small molecule agents were determined based on the calibration curves obtained by the absorbances of the molecules. […]
# HER2a-FTH ferritin = target: T2, HER2a-FTH ferritin (Homo sapiens, UniProt P02794); experiment: one-step incorporation of DOX into HER2a-FTH ferritin; type: physicochemical; conditions: pH 9, 50° C., 60 minutes, DOX 0.3 mg/L
# T2 construct: pET20-FTH carrying a DNA encoding a human-derived ferritin H chain monomer as a template; made in house; host or cells: Escherichia coli BL21 (DE3), plasmid pET20-HER2a-FTH
# T2 sequence (P02794 with tags, fused parts or gaps limits assumed): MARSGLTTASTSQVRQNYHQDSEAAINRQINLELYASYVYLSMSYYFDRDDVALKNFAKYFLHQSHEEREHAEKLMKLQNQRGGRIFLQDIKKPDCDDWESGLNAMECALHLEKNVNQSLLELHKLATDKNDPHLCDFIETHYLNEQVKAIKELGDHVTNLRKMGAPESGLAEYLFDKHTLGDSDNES
# Method: First, PCR was carried out using pET20-FTH carrying a DNA encoding a human-derived ferritin H chain monomer as a template as well as the following primers: 5′-[…]-3′(SEQ ID NO: 15) and 5′-[…]-3′(SEQ ID NO: 16) in order to obtain a DNA encoding the human-derived ferritin H chain (HER2a-FTH) monomer in which a cancer recognition peptide (HER2a: MARSGL (SEQ ID NO: 14); M Houimel et al., Int. J. Cancer 92, 748-755. (2001) which is incorporated herein by reference in its entirety) is inserted and fused at the N-terminus of the ferritin monomer. The resulting PCR products were purified using Wizard DNA Clean-Up System (Promega Corporation), and then treated with restriction enzymes, Dpnl and Ndel (Takara Bio Inc.) for self-ligation in order to construct an expression plasmid (pET20-HER2a-FTH) carrying a gene encoding HER2a-FTH. […]
# DOX was mixed with 1 mL of 50 mM Tris-HCl buffer (pH 9) that contains each mutate ferritin at a final concentration of 1 mg/mL, to achieve a final concentration of 0.3 mg/L, and then the resulting solutions were left to stand at 50° C. for 60 minutes. […] The concentration of contained protein was determined using the protein assay CBB solution (Nacalai Tesque, Inc.) as well as bovine albumin as a standard. The DOX concentration was determined based on analysis of the absorbance at 480 nm.
# ferritin = conditions: cited from earlier work
smiles,measurement,setting,value
"COc1cccc2c1C(=O)c1c(O)c3c(c(O)c1C2=O)C[C@@](O)(C(=O)CO)C[C@@H]3OC1CC(N)C(O)C(C)O1 (stereo partly shown) [DOX, Doxorubicin hydrochloride]",Optimal pH in reaction,FTH ferritin [1],9
same,ratio of amount incorporated at the one-step process to that at the disassembly-reassembly process,FTH ferritin [2],30 fold
same,incorporation efficiency of the reagent,HER2a-FTH ferritin,14.6 % (wt)
same,doxorubicin molecules encapsulated in ferritin,ferritin; denaturing with urea and refolding,approximately 33 molecules
same,doxorubicin molecules encapsulated in ferritin,"ferritin; disassembly at pH 2, reassembly at pH 7-9",approximately 28 molecules
same,doxorubicin molecules encapsulated in ferritin,ferritin; high pressure (200-800 MPa) for 6-20 hours,10-20 molecules
same,doxorubicin molecules encapsulated in ferritin,"ferritin; modified ferritin, pH 2 by addition of HCl",30-90 molecules
